Data from patent publication US20220313702A1, “OXATHIAZIN COMPOUNDS FOR INHIBITING GAPDH” (Geistlich Pharma AG, priority 2019, published 2022).
Like-named read-outs stand apart in the source and are kept apart here.

Assays:
[1] = test system: neuroendocrine cell line QGP-1
Procedure: (§11) Neuroendocrine tumors were tested in vitro using the neuroendocrine cell line QGP-1 and in vivo using mouse models with a QGP-1 cell xenograft and a Bo99 patient-derived pancreatic cancer tissue graft.

[2] = test system: PancTul cell line; assay: ATP luminescent detection kit, PancTul; format: cell-based
Procedure: (§1) FIG. 3: Decrease of ATP in PancTul cell line: Effect of treatment with the indicated concentrations of GP-2250 on the amount of ATP (dark column) in comparison to the cell viability (light column) after a) 3 h, b) 6 h and c) 24 h incubation at 37° C. The strong decrease of ATP reflects the impairment of the energy metabolism by GP-2250. The decrease of ATP precedes the decrease in cell viability and is therefore not caused by the impairment of cell viability. ATP was measured with a luminescent detection kit (Abcam ab113849), cell viability with the MTT test (Sigma M5655). Data are given as % change versus untreated control (NC), presented as mean+/−S.D. Significance levels in comparison to NC. * p<0.05, ** p<0.01, ***p<0.001.
(§2) The level of ATP in a tumor cell is taken as a measure of the impact of GP-2250 on its energy metabolism. […] The decrease of ATP is already apparent after 3 h with PancTul and at 6 h with the less sensitive BxPC3 at 250 uM. It is this concentration which causes partial inhibition of GAPD (FIG. 1) and thereby links GAPD inhibition to the decrease of ATP, which in itself is a sufficient signal for the induction of apoptosis. […]
(§3) The strong decrease of ATP reflects the impairment of the energy metabolism by GP-2250. […] ATP was measured with a luminescent detection kit (Abcam ab113849), cell viability with the MTT test (Sigma M5655). […]

[3] = test system: AsPC-1 pancreatic cancer cell line
Procedure: (§12) Following 4 weekly cycles of cytotoxic treatment and regrowth (see text), the cytotoxic potency of GP-2250 (FIG. 8A) and of gemcitabine (FIG. 8B) was tested with the BrdU and MTT assay respectively in the AsPC-1 pancreatic cancer cell line (light columns). Controls corresponded to cells cultured for 4 weeks without drug treatment (dark columns).
(§13) Secondary resistance to 2250 was tested to imitate the repetitive bolus administration of the drug over a period of up to 8 weeks. Gemcitabine was used as comparator drug. A potential secondary resistance was expected to manifest itself in a decreased ability of either drug to impair cell viability. The study was performed with 3 pancreatic tumor cell lines, AsPC-1, PancTul and Bo80, the latter being a primary cell line derived from a pancreatic cancer patient. The cells were treated once a week for 24 hours with 2250 or gemcitabine at a dose which destroyed 80-90% of the cells. Subsequently, the media were exchanged and the cells were allowed to regrow in the absence of drug for 6 days.
(§14) This weekly treatment cycle of cell killing and regrowth was repeated for both drugs for 4 weeks, 6 weeks and 8 weeks. Untreated cultures of 4, 6 and 8 weeks were used as controls. Cell viability was tested with the BrdU assay or the MTT assay at 2 hour, 24 hour, and 6 days in every treatment cycle for 4, 6 and 8 weeks.

[4] = test system: Chemotherapy-resistant stem cells from advanced Stage 3 and 4 pancreatic cancer human patients; assay: chemotherapy-resistant stem cells from pancreatic cancer patients; format: cell-based; settings: several concentrations
[5] = test system: Bax; assay: Western blot of Bax expression in PancTul cells; format: cell-based; settings: 200 μM, 0 h, 6 h, 12 h and 24 h, α-tubulin as control
Procedure: (§4) FIG. 5: Regulation of oncoproteins Bax and Bcl-2 expression: Effect of treatment with 200 μM GP-2250 for 0 h, 6 h, 12 h and 24 h on the expression of the oncoproteins a) Bax and b) Bcl-2 was tested in PancTul cells by Western blots with α-tubulin as control. The expression of the pro-apoptotic protein Bax was increased whereas the expression of the anti-apoptotic Bcl-2 was decreased over time of incubation with GP-2250.
(§5) Apoptotic pathways are triggered by a decrease of ATP or an increase of ROS. They result in a shift of the equilibrium between the pro-apoptotic (death) protein Bax and the anti-apoptotic (survival) protein Bcl-2. The mitochondria are destabilized and the apoptotic caspase cascade finalizes the apoptotic cell suicide. GP-2250 (200 μM) increased the expression of Bax and decrease the expression of BCl-2 with increasing incubation times as shown in the Western blots (FIG. 5). […] In addition, the concentration of GP-2250 which is sufficient to change the Bax/Bcl-2 ratio (200 uM) corresponds to that for partial GAPDH inhibition (250 uM) (FIG. 1). This finding links GAPDH inhibition to the induction of apoptosis.
(§6) The expression of the pro-apoptotic protein Bax was increased whereas the expression of the anti-apoptotic Bcl-2 was decreased over time of incubation with GP-2250.

[6] = test system: primary cell line derived from human pancreatic cancer (Bo80); assay: cell viability MTT assay, Bo80 primary pancreatic cancer cells; format: cell-based; settings: 24 h at 37° C.
Procedure: FIG. 6: Synergy between GP-2250 and Gemcitabine: Cell viability was tested in a primary cell line derived from human pancreatic cancer (Bo80). […] When combined, a striking synergy was observed. The number of viable cells was reduced by 70-75%. Cell viability was tested colorimetically using the MTT assay. […] Reduction of chemotherapy drug-related toxicity can be achieved in vitro using the combinations with GP-2250 while maintaining high efficacy. The combination of GP-2250 with gemcitabine was therefore tested in mouse models of patient-derived xenografts to assess the therapeutic potential of this drug combination in vivo (see FIGS. 12-15; FIG. 18). […] When combined, a striking synergy was observed. The number of viable cells was reduced by 70-75%. Cell viability was tested colorimetically using the MTT assay.

[7] = test system: PancTul pancreatic cancer cell line; assay: test of secondary resistance, PancTul; format: cell-based; settings: 6 weekly treatment cycles, BrdU assay
Excerpt: FIG. 9: Test of secondary resistance.
Gemcitabine was used as comparator drug.

[8] = test system: Bcl-2; assay: Western blot of Bcl-2 expression in PancTul cells; format: cell-based; settings: 200 μM, 0 h, 6 h, 12 h and 24 h, α-tubulin as control
Procedure: as §4, §5, §6

[9] = test system: PancTul cell line; assay: cell viability MTT test, PancTul; format: cell-based
Procedure: as §1
(§7) The strong decrease of ATP reflects the impairment of the energy metabolism by GP-2250. The decrease of ATP precedes the decrease in cell viability and is therefore not caused by the impairment of cell viability. ATP was measured with a luminescent detection kit (Abcam ab113849), cell viability with the MTT test (Sigma M5655). Data are given as % change versus untreated control (NC), presented as mean+/−S.D. Significance levels in comparison to NC. * p<0.05, ** p<0.01, ***p<0.001.

[10] = test system: Bo80 pancreatic primary cancer cell line
Procedure: (§15) Controls corresponded to cells cultured for 8 weeks without drug treatment (dark columns).
as §13, §14

[11] = test system: BxPC3 cell line; assay: cell viability MTT test, BxPC3; format: cell-based
Procedure: as §1, with “4:” for “3:”, “BxPC3” for “PancTul”
as §7

[12] = molecular target: recombinant GAPDH (rGAPDH) (Homo sapiens, UniProt P04406); assay: Glyceraldehyde-3-phosphate Dehydrogenase Activity Assay Kit with recombinant GAPDH; format: biochemical
Procedure: FIG. 1: Inhibition of GAPDH enzyme activity: Effect of treatment with GP-2250 (100 uM and 250 uM) on the activity of recombinant GAPDH (rGAPDH) was tested with the Glyceraldehyde-3-phosphate Dehydrogenase Activity Assay Kit (Abcam ab204732) following incubation for up to 60 min at 37° C. The rGAPDH activity is inhibited dose- and time-dependently by 100 uM and 250 uM GP-2250 up to 40% compared to the untreated control. […] The GP-2250 curves are the measured data, not normalized to controls. Data are presented as mean+/−S.D.
The incubation time may be critical as it is a cell-free assay. Specific doses required for a half-maximal or full inhibition of GAPDH are tested in vitro and in vivo in rodents. These in vitro and in vivo data provide a target-related measure of the dose required to inhibit the GAPDH in tissue, e.g., cancer tissue, to various degrees, which is a more direct measure of the impact of the compounds of the present disclosure in contrast to cellular assays such as induction of apoptosis or ROS production.
GAPDH is the rate limiting glycolytic enzyme in cells operating under conditions of aerobic glycolysis, such as tumor cells. Partial inhibition is therefore expected to impair the energy metabolism of tumor cells. This is in contrast to normal cells. […] The GP-2250 curves are the measured data, not normalized to controls. […]

[13] = test system: BxPC3 cell line; assay: ATP luminescent detection kit, BxPC3; format: cell-based
Procedure: as §1, with “4:” for “3:”, “BxPC3” for “PancTul”
as §2, §3

[14] = test system: PancTul pancreatic cancer cell line; assay: fluorescent ROS detection assay, PancTul; format: cell-based
Procedure: (§8) FIG. 2: Formation of ROS: The effect of treatment with the indicated concentrations of GP-2250 on the formation of ROS was tested in two pancreatic cancer cell lines a) PancTul and b) BxPC3, using a fluorescent ROS detection assay (ROS/Superoxide Detection Assay Kit, Abcam (ab139476)) following incubation with GP-2250 for 90 min at 37° C. Negative controls (NC+NAC) contained the ROS inhibitor which is part of the Assay Kit plus N-acetylcysteine (NAC; 5 mM). Untreated control (U). Data are presented as mean+/−S.D. Significance levels calculated in comparison to untreated controls (U). * p<0.05, ** p<0.01, *** p<0.001.
(§9) The effects of treatment with various concentrations of GP-2250 on the formation of ROS was tested in two pancreatic cancer cell lines a) PancTul and b) BxPC3 as shown in FIG. 2. […] The BxPC3 cell line was more sensitive to forming ROS than Panc Tul. The rather high concentrations of GP-2250 which are required for the formation of ROS (equal or higher than 500 uM) are most likely due to the short incubation time of 90 minutes in this cellular assay. A higher potency of GP-2250 would be expected at longer incubation times.
(§10) Untreated control (U). Data are presented as mean+/−S.D. Significance levels calculated in comparison to untreated controls (U). * p<0.05, ** p<0.01, *** p<0.001.

[15] = test system: BxPC3 pancreatic cancer cell line; assay: fluorescent ROS detection assay, BxPC3; format: cell-based
Procedure: as §8, §9, §10

[16] = test system: Bo80 pancreatic primary cancer cell line; assay: test of secondary resistance, Bo80; settings: Bo80, 8 weekly treatment cycles, BrdU assay, vs untreated 8-week cultures
Procedure: as §15, §13, §14

[17] = test system: neuroendocrine cell line QGP-1; assay: QGP-1 tumor cell viability in vitro
Procedure: as §11

[18] = test system: AsPC-1 pancreatic cancer cell line; assay: test of secondary resistance, AsPC-1; settings: AsPC-1, 4 weekly treatment cycles, MTT assay, vs untreated 4-week cultures
Procedure: as §12, §13, §14

[19] = molecular target: GAPDH (Homo sapiens, UniProt P04406); assay: interactions with GAPDH (covalent labeling); format: biochemical
Procedure: Various oxathiazine-like compounds of the present disclosure are synthesized and are assayed for interactions with GAPDH. Isethionic acid amide and methylene glycol were identified as hydrolytic products. A reactive transient reactive intermediate is isethionic acid hydroxymethylamide. […] The covalently labeled enzyme is purified and reactive intermediates are identified using various analytical methods including mass spectrometry of the labeled peptide is elucidated.

Chain of recombinant GAPDH (rGAPDH) (P04406 whole entry): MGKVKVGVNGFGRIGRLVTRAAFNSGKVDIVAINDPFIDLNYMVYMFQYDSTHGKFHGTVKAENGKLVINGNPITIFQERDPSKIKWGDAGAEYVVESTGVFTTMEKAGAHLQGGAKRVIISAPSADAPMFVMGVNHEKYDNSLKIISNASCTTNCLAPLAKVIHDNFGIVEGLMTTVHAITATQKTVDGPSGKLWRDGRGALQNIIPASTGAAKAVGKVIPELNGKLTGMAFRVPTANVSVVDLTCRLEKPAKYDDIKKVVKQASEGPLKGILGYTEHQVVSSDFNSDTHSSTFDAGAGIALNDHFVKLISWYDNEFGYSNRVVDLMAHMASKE
Chain of GAPDH (P04406 whole entry): as above

O=S1(=O)CCOCN1 [GP-2250, Tetrahydro1,4,5-oxathiazin-4-dioxide]
cytotoxic effect in QGP-1 cells, monotherapy [1]: concentration-dependent cytotoxic effect
incubation time at which decrease of ATP is apparent ([2]; 250 uM): 3 h
ATP amount ([2]; 3 h, 6 h, 24 h at 37° C.): decreases depending on the concentration of GP-2250 and the incubation time
cytotoxic potency after repeated treatment (secondary resistance) [3]: remained unchanged
effect on chemotherapy-resistant stem cells [4]: some effect at higher concentrations
expression of Bax [5]: increased
cell viability, drug alone ([6]; GP-2250 200 uM): inactive per se
cytotoxic potency after repeated treatment (secondary resistance) [7]: remained unchanged
expression of Bcl-2 [8]: decreased
impairment of cell viability (MTT) relative to ATP decrease [9]: required higher concentrations than those required to decrease ATP
cytotoxic potency after repeated treatment (secondary resistance) [10]: remained unchanged
impairment of cell viability (MTT) relative to ATP decrease [11]: required higher concentrations than those required to decrease ATP
inhibition of rGAPDH activity ([12]; 100 uM and 250 uM GP-2250, incubation up to 60 min at 37° C., compared to untreated control, dose- and time-dependent): up to 40%
inhibition of recombinant GAPDH ([12]; cell-free assay): directly inhibited
incubation time at which decrease of ATP is apparent ([13]; BxPC3, 250 uM): 6 h
ATP amount ([13]; BxPC3, 3 h, 6 h, 24 h at 37° C.): decreases depending on the concentration of GP-2250 and the incubation time
increase of ROS ([14]; 90 min at 37° C.): concentration dependent
concentrations required for the formation of ROS ([14]; incubation time of 90 minutes): ≥ 500 µM
increase of ROS ([15]; BxPC3, 90 min at 37° C.): concentration dependent
concentrations required for the formation of ROS ([15]; BxPC3, incubation time of 90 minutes): ≥ 500 µM

Nc1ccn([C@@H]2O[C@H](CO)[C@@H](O)C2(F)F)c(=O)n1 [gemcitabine]
cytotoxic potency after repeated treatment (secondary resistance) [16]: reduced cytotoxic potency
cytotoxic effect in QGP-1 cells, monotherapy [17]: concentration-dependent cytotoxic effect
effect on chemotherapy-resistant stem cells [4]: minimal effect at all tested concentrations
cell viability, drug alone ([6]; Gemcitabine 100 uM or 1000 uM): inactive per se
cytotoxic potency after repeated treatment (secondary resistance) [18]: reduced cytotoxic potency

O=S(=O)(CCO)NCO [isethionic acid hydroxymethylamide]
interaction with the reactive cysteine-SH in the active center of GAPDH [19]: inactivates the enzyme
